{"source": "patent US9688957B2", "about": "“Hydrogel compositions for use in promoting tubulogenesis” (Wisconsin Alumni Research Foundation, priority 2014, dated 2017)", "assay_type_in_all_cases": "cell-based, human", "key": {"HUVECs [1]": {"tested_on": "HUVECs", "assay": "HUVEC viability in 3D PEG hydrogel array spots", "settings": "10 μM SU5416, 48 hours", "method": "During hydrogel array fabrication, hydrogel spots contained HUVECs at a density of 2×10^7 cells/mL. The concentration of CRGDS adhesion peptide (SEQ ID NO:2) was adjusted to 0, 0.25, 0.5, 1.0 and 2.0 mM through the addition of PEGNB-CRGDS (SEQ ID NO:2), with the total pendant peptide concentration in all hydrogel spots maintained at 2 mM by adding PEGNB-CRDGS (SEQ ID NO:2). Total polymer percent weight was varied between 4.2, 5 and 7% w/v in the hydrogel spots and 4, 6 and 8% w/v in the backgrounds, with low percent weight hydrogel spots corresponding to low weight percent backgrounds and high percent weight hydrogel spots corresponding to high percent weight backgrounds. During viability experiments, arrays of encapsulated cells were cultured for 48 hours in growth medium alone or with 10 μM SU5416 (Sigma Aldrich), a known inhibitor of VEGFR2 signaling. Medium was replaced 24 hours after encapsulation. After 48 hours of culture, the arrays were washed with serum-free M199 and stained with 5 μM Cell Tracker Green (Invitrogen) for 45 minutes in M199. After 15 minutes of staining, the staining solution was supplemented with Hoechst nuclear stain (Invitrogen) to achieve a final concentration of 10 μg/mL. After staining, the arrays were washed with serum free M199 and incubated for 30 minutes in growth medium containing 2 μM ethidium homodimer (Invitrogen). The arrays were then washed with 1×PBS and fixed for 30 minutes in 10% buffered formalin (Fisher). The arrays were soaked in 1×PBS overnight and photographed using a Nikon TE300 fluorescence microscope within 48 hours of fixation. Viability was quantified by dividing the number of live cell nuclei by total nuclei in the post."}, "HUVECs [2]": {"tested_on": "HUVECs", "assay": "HUVEC tubulogenesis (total CLS length) in 3D PEG hydrogel array spots", "settings": "10 μM SU5416, 24 hours", "method": "(§1) During proliferation and tubulogenesis experiments, the arrays of encapsulated cells were cultured in growth medium alone or with 10 μM SU5416 for 24 hours only. Afterward, the cells were incubated for 5 hours in growth medium with 20 μM 5-ethynyl-2′-deoxyuridine (EdU) (Invitrogen) as a proliferation marker and, if appropriate, 10 μM SU5416. Afterward, the arrays were stained with Cell Tracker Green in the same manner as the viability assay, but without Hoechst nuclear stain or ethidium homodimer. The arrays were washed with 1×PBS, fixed for 30 minutes in 10% buffered formalin and stained using the Click-iT EdU 594 proliferation kit (Invitrogen). The staining procedure was slightly modified from the manufacturer's instructions, as Alexa Fluor® 594 was diluted to half the recommended concentration. The arrays were soaked in 1×PBS overnight and photographed using a Nikon TE300 fluorescence microscope. Proliferation was quantified by counting the number of EdU-positive cells and dividing by the total number of nuclei in the post. Tubulogenesis was quantified by manually measuring total capillary-like structure (CLS) length in each post as labeled by Cell Tracker Green. To obtain confocal microscopy images, the hydrogel arrays were mounted in Prolong Gold antifade solution (Invitrogen) and photographed on a Nikon A1R-Si confocal microscope.\nHydrogel solutions were created by combining 36, 42 or 60 mg/mL 20 kDa 8-arm norbornene-functionalized PEG with 0 to 2 mM CRGDS (SEQ ID NO:2) adhesion peptide, additional CRDGS (SEQ ID NO:32) scrambled adhesion peptide to maintain a total adhesion peptide concentration of 2 mM, […] (SEQ ID NO:27) crosslinking peptide at a 2× molar excess concentration to PEG and 0.05% IRGACURE 2959 photoinitiator in phosphate buffered saline. The solutions were polymerized into hydrogels under UV light (90 mW/cm^2, 365 nm, 2 seconds). HUVECs were encapsulated at a density of 2.0×10^7 […] in hydrogels and incubated in M199 supplemented with EGM2 growth supplement. The cells were stained with Cell Tracker Green CMFDA, photographed 24 hours after seeding and scored for total tubule length in the spots. Results are shown FIGS. 18, 28 and 29."}, "HUVECs [3]": {"tested_on": "HUVECs", "assay": "HUVEC tubulogenesis in growth factor-reduced MATRIGEL spots", "settings": "10 μM SU5416, HUVECs in growth factor-reduced MATRIGEL, 48 hours", "method": "HUVECs were suspended in growth factor-reduced MATRIGEL® (BD Biosciences, San Jose, Calif.) at a density of 2×10^7 cells/mL. A 200 μm thick PDMS sheet of microwells was placed on top of a glass slide and the MATRIGEL®-cell suspension was pipetted as 0.4 μl droplets into the microwells. These arrays of MATRIGEL® “spots” were incubated at 37° C. for 30 minutes and covered in growth medium alone or with 10 μM SU5416. After 48 hours of culture, the arrays were stained with Cell Tracker Green in the same manner as in the PEG hydrogel viability assay, but without Hoechst nuclear stain or ethidium homodimer. The arrays were washed with 1×PBS and fixed for 30 minutes in 10% buffered formalin. A green fluorescence and phase contrast z-stack image of each spot was taken at 48 hours after encapsulation using a Nikon TI Eclipse microscope. Total CLS length in each individual spot was quantified manually."}, "HUVECs [4]": {"tested_on": "HUVECs", "assay": "HUVEC proliferation with VEGFR2 inhibition on tissue culture polystyrene (EdU)", "settings": "10 μM SU5416, HUVECs on TCPS, 24 hours", "procedure": "HUVECs were plated in tissue culture polystyrene (TCPS) 24-well plates at a density of 5.0×10^4 cells/cm^2. The cells were grown in growth medium alone or with 10 μM SU5416 for 24 hours. Afterward, the medium was changed to fresh growth medium with or without 10 μM SU5416 and 20 μM EdU. After 5 hours of incubation, the cells were fixed in 10% buffered formalin for 30 minutes and stained using the Click-iT EdU 488 proliferation kit (Invitrogen). The staining procedure was slightly modified from the manufacturer's instructions, as Alexa Fluor® 488 was diluted to half the recommended concentration. The cells were photographed using a Nikon TE300 fluorescence microscope and proliferation was quantified via by counting nuclei staining positive for EdU and normalizing the number to total nuclei."}, "HUVECs [5]": {"tested_on": "HUVECs", "assay": "HUVEC proliferation in 3D PEG hydrogel array spots (Click-iT EdU)", "settings": "10 μM SU5416, 24 hours", "method": "as §1"}}, "data": [{"smiles": "Cc1cc(C)c(/C=C2\\C(=O)Nc3ccccc32)[nH]1", "note": "[SU5416]", "values": [{"measurement": "reduction of viability with VEGFR2 inhibition", "setting": "HUVECs [1]; all modulus conditions, spots with 2 mM CRGDS", "result": "insignificant"}, {"measurement": "effect of VEGFR2 inhibition on cell viability", "setting": "HUVECs [1]; conditions without CRGDS", "result": "significantly reduced"}, {"measurement": "effect of VEGFR2 inhibition on viability", "setting": "HUVECs [1]; high modulus, CRGDS at or above 0.5 mM", "result": "not significant"}, {"measurement": "effect of VEGFR2 inhibition on CLS length", "setting": "HUVECs [2]; high modulus, 1 mM CRGDS spots", "result": "decreased CLS length"}, {"measurement": "effect of VEGFR2 inhibition on CLS length", "setting": "HUVECs [2]; low modulus, 2 mM CRGDS spots", "result": "increased CLS length"}, {"measurement": "effect of VEGFR2 inhibition on CLS length", "setting": "HUVECs [2]; medium modulus, 0 mM CRGDS spots", "result": "decreased CLS length"}, {"measurement": "effect of VEGFR2 inhibition on CLS length compared to growth medium controls", "setting": "HUVECs [2]; most hydrogel conditions", "result": "did not cause significant changes"}, {"measurement": "decrease in total tubule length compared to growth medium only", "setting": "HUVECs [3]", "result": 50, "unit": "%"}, {"measurement": "decrease in proliferation compared to the growth medium control", "setting": "HUVECs [4]", "result": 20, "unit": "%"}, {"measurement": "effect of VEGFR2 inhibition on proliferation", "setting": "HUVECs [5]; high modulus, 0 mM CRGDS", "result": "significant increase in proliferation"}, {"measurement": "effect of VEGFR2 inhibition on proliferation", "setting": "HUVECs [5]; high modulus, all CRGDS concentrations except 0 mM", "result": "significant decreases in proliferation"}, {"measurement": "effect of VEGFR2 inhibition on proliferation", "setting": "HUVECs [5]; low modulus, 0, 0.25 and 1 mM CRGDS", "result": "significant decrease"}, {"measurement": "effect of VEGFR2 inhibition on proliferation", "setting": "HUVECs [5]; low modulus, 2 mM CRGDS", "result": "increased significantly"}, {"measurement": "effect of VEGFR2 inhibition on HUVEC proliferation", "setting": "HUVECs [5]; majority of hydrogel conditions", "result": "decreased"}, {"measurement": "effect of VEGFR2 inhibition on proliferation", "setting": "HUVECs [5]; medium modulus, 0.5 and 2 mM CRGDS", "result": "significant proliferation decreases"}]}]}
